Measured values published in PubChem BioAssay (NCI).
“And” between values parts separate entries of the source, which are not always exact repeats. Equal values may be shown once.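 In this assay, cells in 96-well plates receive the compound at five concentrations for 48 hours. Endpoints are linearly interpolated between the surrounding concentrations. At the GI50, growth is halved. TGI: concentration producing complete growth inhibition.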

Experiments:
Assay in all cases: NCI anticancer screen, dose series, 48 h
[1] = tested on: UO-31 renal
[2] = tested on: DU-145 prostate
[3] = tested on: MOLT-4 leukemia
[4] = tested on: RXF 393 renal
[5] = tested on: NCI/ADR-RES ovarian
[6] = tested on: OVCAR-5 ovarian
[7] = tested on: HCC-2998 colon
[8] = tested on: CCRF-CEM leukemia
[9] = tested on: U251 CNS
[10] = tested on: EKVX NSCLC
[11] = tested on: T-47D breast

With O=C(O)CCS/C(=C\C(SCCC(=O)O)c1ccc(Cl)cc1)c1ccc(Cl)cc1 (configuration not stated) the TGI [1] was greater than 100 µM, the TGI [2] was greater than 100 µM and the TGI [3] was greater than 100 µM. It also gave a TGI [4] greater than 100 µM, a TGI [5] greater than 100 µM and a TGI [6] greater than 100 µM. It also gave a TGI [7] of 54.7 µM, a TGI [8] greater than 100 µM and a TGI [9] greater than 100 µM. For the same compound, the TGI [10] was greater than 100 µM and the TGI [11] was greater than 100 µM.

Compound [O-][N+](=Nc1ccccc1CO)c1ccccc1CO has a TGI [1] greater than 100 µM, a TGI [2] greater than 100 µM and a TGI [3] greater than 100 µM. For the same compound, the TGI [4] was greater than 100 µM, the TGI [5] was greater than 100 µM and the TGI [6] was greater than 100 µM. For the same compound, the TGI [7] was greater than 100 µM, the TGI [8] was greater than 100 µM and the TGI [9] was greater than 100 µM. For the same compound, the TGI [10] was greater than 100 µM and the TGI [11] was greater than 100 µM.

Work on Cc1c2c3ccccc3nc-2n(C)c2ccccc12 yielded a TGI [1] of 6.25 µM, a TGI [2] of 29.6 µM and a TGI [3] of 2.01 µM. The TGI [4] was 6.01 µM, the TGI [5] was 6.78 µM and the TGI [6] was 8.27 µM. For the same compound, the TGI [7] was 11.4 µM, the TGI [8] was 5.33 µM and the TGI [9] was 12.7 µM. The TGI [10] was 10.3 µM and the TGI [11] was 41.3 µM.

COc1ccc(-n2[nH]nc(C(N)=O)c2=O)cc1 was tested, and the TGI [1] was greater than 100 µM, the TGI [2] was greater than 100 µM and the TGI [3] was greater than 100 µM. It also gave a TGI [4] greater than 100 µM, a TGI [5] greater than 100 µM and a TGI [6] greater than 100 µM. It also gave a TGI [7] greater than 100 µM, a TGI [8] greater than 100 µM and a TGI [9] greater than 100 µM. For the same compound, the TGI [10] was greater than 100 µM and the TGI [11] was greater than 100 µM.

COc1ccc(-n2c(N)c(C#N)[nH]c2=O)cc1 gave a TGI [1] greater than 10 µM, a TGI [2] greater than 10 µM and a TGI [3] greater than 10 µM. For the same compound, the TGI [4] was greater than 10 µM, the TGI [5] was greater than 10 µM and the TGI [6] was greater than 10 µM. The TGI [7] was greater than 10 µM, the TGI [8] was greater than 10 µM and the TGI [9] was greater than 10 µM. The TGI [10] was greater than 10 µM and the TGI [11] was greater than 10 µM.

Compound CCOC(=O)c1nnsc1N/N=C\c1ccc([N+](=O)[O-])cc1 has a TGI [1] greater than 100 µM, a TGI [2] greater than 100 µM and a TGI [3] greater than 100 µM. It also gave a TGI [4] greater than 100 µM, a TGI [5] greater than 100 µM and a TGI [6] greater than 100 µM. For the same compound, the TGI [7] was greater than 100 µM, the TGI [8] was greater than 100 µM and the TGI [9] was greater than 100 µM. It also gave a TGI [10] greater than 100 µM and a TGI [11] greater than 100 µM.

Cc1ccc2c(c1)C(=O)c1nc(C)ccc1C2=O showed a TGI [1] of 86.2 µM, a TGI [2] greater than 100 µM and a TGI [3] greater than 100 µM. The TGI [4] was greater than 100 µM, the TGI [5] was 59.1 µM and the TGI [6] was greater than 100 µM. For the same compound, the TGI [7] was 87.8 µM, the TGI [8] was greater than 100 µM and the TGI [9] was greater than 100 µM. It also gave a TGI [10] greater than 100 µM and a TGI [11] greater than 100 µM.

In the case of Nc1[nH]nc(Nc2ccc(Cl)cc2)c1P(=O)(c1ccccc1)c1ccccc1, the TGI [1] is reported as greater than 100 µM, the TGI [2] is reported as 86.5 µM and the TGI [3] is reported as greater than 100 µM. It also gave a TGI [4] of 53.9 µM, a TGI [5] of 52.3 µM and a TGI [6] of 45.6 µM. The TGI [7] was 60.2 µM, the TGI [8] was 86.1 µM and the TGI [9] was greater than 100 µM. It also gave a TGI [10] greater than 100 µM and a TGI [11] greater than 100 µM.

Cc1ccc(/C=N/n2c(-c3ccc(C)cc3)n[nH]c2=O)cc1 was tested, and the TGI [1] was greater than 100 µM, the TGI [2] was greater than 100 µM and the TGI [3] was greater than 100 µM. The TGI [4] was 72.9 µM, the TGI [5] was greater than 100 µM and the TGI [6] was greater than 100 µM. The TGI [7] was greater than 100 µM, the TGI [8] was greater than 100 µM and the TGI [9] was greater than 100 µM. It also gave a TGI [10] greater than 100 µM and a TGI [11] greater than 100 µM.

Work on CCCCCCCCCCCCCCCCNC(=O)C(=O)/C=C(\O)c1ccc(C)cc1 yielded a TGI [1] greater than 10 µM, a TGI [2] greater than 10 µM and a TGI [3] greater than 10 µM. For the same compound, the TGI [4] was greater than 10 µM, the TGI [5] was greater than 10 µM and the TGI [6] was greater than 10 µM. It also gave a TGI [7] greater than 10 µM, a TGI [8] greater than 10 µM and a TGI [9] greater than 10 µM. It also gave a TGI [10] greater than 10 µM and a TGI [11] greater than 10 µM.

Nc1nc(Cl)c(N)c(NCC2(CO)CC2)n1 gave a TGI [1] greater than 100 µM, a TGI [2] greater than 100 µM and a TGI [3] greater than 100 µM. It also gave a TGI [4] greater than 100 µM, a TGI [5] greater than 100 µM and a TGI [6] greater than 100 µM. The TGI [7] was greater than 100 µM, the TGI [8] was greater than 100 µM and the TGI [9] was greater than 100 µM. For the same compound, the TGI [10] was greater than 100 µM and the TGI [11] was greater than 100 µM.

In the case of C=C(C(=O)O)[C@@H]1C[C@@H]2O[C@H]1[C@@H](O)[C@@H](C)CCCC(C)=CCC[C@@]2(C)O, the TGI [1] is reported as greater than 100 µM, the TGI [2] is reported as greater than 100 µM and the GI50 [3] is reported as 27.2 µM and 56.9 µM. The TGI [3] was greater than 100 µM, the TGI [4] was greater than 100 µM and the TGI [5] was greater than 100 µM. For the same compound, the TGI [6] was greater than 100 µM, the TGI [7] was greater than 100 µM and the TGI [8] was greater than 100 µM. For the same compound, the TGI [9] was greater than 100 µM, the TGI [10] was greater than 100 µM and the TGI [11] was greater than 100 µM.

O=C1/C(=C\c2cccc(Oc3ccccc3)c2)SC(c2ccccc2)N1c1ccccc1 (configuration not stated) was tested, and the TGI [1] was greater than 100 µM, the TGI [2] was greater than 100 µM and the TGI [3] was greater than 100 µM. The TGI [4] was greater than 100 µM, the TGI [5] was greater than 100 µM and the TGI [6] was greater than 100 µM. For the same compound, the TGI [7] was greater than 100 µM, the TGI [8] was 86.4 µM and the TGI [9] was greater than 100 µM. It also gave a TGI [10] greater than 100 µM and a TGI [11] greater than 100 µM.

O=C1c2cc(Cl)ccc2NC(=NC2CCCC2)C2CSCN12 (configuration not stated) showed a TGI [1] greater than 100 µM, a TGI [2] greater than 100 µM and a TGI [3] greater than 100 µM. It also gave a TGI [4] greater than 100 µM, a TGI [5] greater than 100 µM and a TGI [6] greater than 100 µM. For the same compound, the TGI [7] was greater than 100 µM, the TGI [8] was greater than 100 µM and the TGI [9] was greater than 100 µM. For the same compound, the TGI [10] was greater than 100 µM and the TGI [11] was greater than 100 µM.

With CS(=O)(=O)OCCN(CCOS(C)(=O)=O)c1ccc(C=Nc2cccc(Cl)c2)cc1 the TGI [1] was greater than 100 µM, the TGI [2] was greater than 100 µM and the TGI [3] was 1.31 µM. It also gave a TGI [4] greater than 100 µM, a TGI [5] of 27.3 µM and a TGI [6] of 17.7 µM. It also gave a TGI [7] of 19.7 µM, a TGI [8] greater than 100 µM and a TGI [9] of 20.7 µM. The TGI [10] was 46.6 µM and the TGI [11] was greater than 100 µM.

For CCOC(=O)c1c(N=P(c2ccccc2)(c2ccccc2)c2ccccc2)nnc(-c2ccccc2)c1-c1ccccc1, the TGI [1] was greater than 100 µM, the TGI [2] was greater than 100 µM and the TGI [3] was greater than 100 µM. The TGI [4] was greater than 100 µM, the TGI [5] was greater than 100 µM and the TGI [6] was greater than 100 µM. The TGI [7] was greater than 100 µM, the TGI [8] was greater than 100 µM and the TGI [9] was greater than 100 µM. The TGI [10] was greater than 100 µM and the TGI [11] was greater than 100 µM.
